# Measured values from PMC5146284, “Molecular imaging with engineered physiology” (Nature Communications, 2016).
# Where two headings read alike, the source gives them in different places. Positions of bridges follow the written chain, without caps; N, C: chain ends. No end group written: not given here. *: point of attachment. long‑chain biotin = O=C(CCCC[C@@H]1SC[C@@H]2NC(=O)N[C@@H]21)NCCCCCC(=O)*; cfSGFP2 = cysteine-free variant of the GFP
# How the values were obtained:
# [1] = target: T1, RAMP1/CLR CGRP receptor heterodimer in HEK293FT reporter cells (Homo sapiens, UniProt O60894+Q16602); assay: Luminescent cAMP (GloSensor) cell-based bioassay for CGRP receptor activation; conditions: for Log(EC50), Cleaved: after protease: (1) 5 ng/μl human FAP, (2) 0.1 U/μl TEV, (3) 2 pg/μl EK light chain, (4) 23 ng/μl, (5) 11.5 ng/μl human CASP3; for Log(EC50), Cleaved / Log(EC50), Uncleaved: s.e.m. <0.1 (n=7); for Log(EC50), Uncleaved: incubated without protease
# T1 construct: HA-CALCRL: Human calcitonin receptor-like receptor preceded by the H. influenza; Human receptor-activity modifying protein 1 preceded by the H. influenza; hemagglutinin signal peptide (heterologous, replaces the native one) (N); expressed in transfected cells
# T1 sequence (Q16602 23-461): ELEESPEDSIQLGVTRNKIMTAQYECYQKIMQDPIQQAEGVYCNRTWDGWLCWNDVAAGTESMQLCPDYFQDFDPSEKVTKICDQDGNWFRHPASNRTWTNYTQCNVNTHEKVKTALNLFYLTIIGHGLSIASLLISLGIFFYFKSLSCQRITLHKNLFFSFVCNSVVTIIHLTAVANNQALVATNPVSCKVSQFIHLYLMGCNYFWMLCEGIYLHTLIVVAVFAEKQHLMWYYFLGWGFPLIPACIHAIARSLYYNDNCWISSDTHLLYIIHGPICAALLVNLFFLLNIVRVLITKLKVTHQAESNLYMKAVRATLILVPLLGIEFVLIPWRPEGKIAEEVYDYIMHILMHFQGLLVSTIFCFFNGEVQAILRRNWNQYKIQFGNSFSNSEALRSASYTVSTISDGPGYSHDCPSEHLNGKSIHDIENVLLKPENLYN
# T1 sequence (O60894 27-148): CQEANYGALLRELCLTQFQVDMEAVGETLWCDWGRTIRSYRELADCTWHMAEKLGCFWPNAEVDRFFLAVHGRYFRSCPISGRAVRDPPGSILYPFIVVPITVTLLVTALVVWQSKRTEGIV
# caspase-3 (CASP3) = assay: Proteolytic cleavage by caspase-3 (SDS-PAGE or MALDI); type: biochemical, human; conditions: 10 µM sensor, 2 h, 37 °C; SDS-PAGE (sensor 4) or MALDI (sensor 5)
# Description: Proteolytic cleavage reactions
# Supplementary Fig. 4. Proteolytic cleavage of candidate sensors and assessment by bioas-say. (a-e) Cleavage reaction products after incubation of 10 µM sensor with or without enzyme for 2 h at 37 °C. (a) MALDI mass spectrum of sensor (1) after incubation with or without FAP […]
# (b) SDS-PAGE analysis of sensor
# (c) SDS-PAGE analysis of sensor (3) after incubation with different concentrations of EK light […]
# (d) SDS-PAGE analysis of sen- […]
# and liberation of free CGRP. (f-k) Dose-response curves of uncleaved and cleaved sensors in […]
# (f) Dose-response curves for Sensors (2-4) at final assay concentrations up to 10 uM (addition of 10 µL of 100 µM solution to 90 µL medium per well in bioassay) show no receptor activation by uncleaved GFP-linker-CGRP-G sensors even at 10-fold higher concentrations than were used in cleavage assays (g-k). (g-k) Dose-response curves for reaction products from (a-e). Error bars in (f-k) denote SD of measurements performed in triplicate.
# (1 picture or pasted object on this page, not shown here)
# [2] = tested on: CASP3, in rat brain (thalamus); conditions: for significant haemodynamic activation / voxel correlation with vs without CASP3: 100 nM sensor, BOLD MRI
# Description: CASP3 sensor aliquots (100 nM) were injected at 0.1 μl min^−1 for 10 min in the presence or absence of CASP3 enzyme (2.3 ng μl^−1) in paired injections into rat thalamus.
# High resolution T2-weighted anatomical scans of each animal were obtained using a rapid acquisition with relaxation enhancement (RARE) pulse sequence with echo time (TE)=44 ms, recycle time (TR)=2,500 ms, RARE factor=8, spatial resolution=100 × 100 × 500 μm, and matrix size=128 × 128 with seven slices. Haemodynamic contrast image series were acquired using a gradient echo echo planar imaging (EPI) pulse sequence with TE=34 ms, TR=4,000 ms, spatial resolution=300 × 300 × 500 μm, and matrix size=64 × 64 with seven slices. To parallel the optical imaging experiments, 5 min of baseline measurement with 4 s per image were acquired before probe infusion. Following this baseline period, while continuously collecting EPI scans, infusion pumps were remotely turned on to commence intracranial injection (in the parenchymal tissue) of 1 μl aliquots of CGRP or control solutions at the rate of 0.1 μl min^−1 through the cannulae. […] For the experiments of Fig. 3d, CGRP-based CASP3 sensors (100 nM) were co-injected simultaneously, either with or without comixed CASP3 enzyme (1.15 ng μl^−1).
# MRI data was processed and analysed using the AFNI software package[47]. The AFNI 3dAllineate command was used to align each animal's EPI data set to the corresponding RARE anatomical image. Each animal's image data were then aligned to a reference MRI rat atlas[48]. To identify voxels with significant increases or decreases in BOLD signal, we used the 3dDeconvolve routines in AFNI to correlate individual or group level voxel-level signal changes with the injection epochs. For correlation analysis, injection epochs were modeled by ‘box car' regressors with a single stimulus block synchronized with the onset and offset of infusion, without delays. […] The cluster size and P value threshold were objectively chosen, based on AFNI's AlphaSim routine, to provide a type I error rate of 5% after correction for multiple comparisons[49][50]; this was appropriate for robust hypothesis testing on individual voxels throughout the entire imaging volume. […] Time courses were obtained by averaging MRI signal over 1.5 × 1.5 mm regions of interest defined around cannula tip locations in individual animals' data sets. The peak percent signal change was determined by comparing signal values during baseline and infusion conditions. Additional statistical analysis was performed in Matlab.
# [3] = tested on: rat brain (thalamus); nNOS; assay: MRI of CGRP response before and after systemic nNOS inhibition with L-NAME; type: in vivo, rat (Sprague-Dawley)
# Description: (e) Dissociation of CGRP-induced artificial haemodynamic signals from nitric oxide-mediated signalling. Left, haemodynamic responses observed by imaging upon unilateral CGRP injection into the left thalamus, before L-NAME delivery (-LN, top), or into the right thalamus, after 50 mg kg^−1 intravenous L-NAME infusion (+LN, bottom). […] Error bars throughout this figure denote s.e.m. values (n=4).
# High resolution T2-weighted anatomical scans of each animal were obtained using a rapid acquisition with relaxation enhancement (RARE) pulse sequence with echo time (TE)=44 ms, recycle time (TR)=2,500 ms, RARE factor=8, spatial resolution=100 × 100 × 500 μm, and matrix size=128 × 128 with seven slices. Haemodynamic contrast image series were acquired using a gradient echo echo planar imaging (EPI) pulse sequence with TE=34 ms, TR=4,000 ms, spatial resolution=300 × 300 × 500 μm, and matrix size=64 × 64 with seven slices. To parallel the optical imaging experiments, 5 min of baseline measurement with 4 s per image were acquired before probe infusion. Following this baseline period, while continuously collecting EPI scans, infusion pumps were remotely turned on to commence intracranial injection (in the parenchymal tissue) of 1 μl aliquots of CGRP or control solutions at the rate of 0.1 μl min^−1 through the cannulae. […]
# MRI data was processed and analysed using the AFNI software package[47]. […]
compound,measurement,setting,value
CC(C)C[C@H](NC(=O)CNC(=O)[C@H](C)NC(=O)[C@H](CC(C)C)NC(=O)[C@H](CCCNC(=N)N)NC(=O)[C@H](Cc1c[nH]cn1)NC(=O)[C@@H](NC(=O)[C@@H](NC(=O)[C@@H]1CSSC[C@H](NC(=O)[C@H](C)NC(=O)[C@@H]2CCCN2C(=O)[C@H](C)N)C(=O)N[C@@H](CC(=O)O)C(=O)N[C@@H]([C@@H](C)O)C(=O)N[C@@H](C)C(=O)N[C@@H]([C@@H](C)O)C(=O)N1)C(C)C)[C@@H](C)O)C(=O)N[C@@H](CC(C)C)C(=O)N[C@@H](CO)C(=O)N[C@@H](CCCNC(=N)N)C(=O)N[C@@H](CO)C(=O)NCC(=O)NCC(=O)N[C@H](C(=O)N[C@H](C(=O)N[C@@H](CCCCN)C(=O)N[C@@H](CC(N)=O)C(=O)N[C@@H](CC(N)=O)C(=O)N[C@@H](Cc1ccccc1)C(=O)N[C@H](C(=O)N1CCC[C@H]1C(=O)N[C@H](C(=O)N[C@@H](CC(N)=O)C(=O)N[C@H](C(=O)NCC(=O)N[C@@H](CO)C(=O)N[C@@H](CCCCN)C(=O)N[C@@H](C)C(=O)N[C@@H](Cc1ccccc1)C(N)=O)C(C)C)[C@@H](C)O)C(C)C)C(C)C)C(C)C [Sensor (1)],EC50,"[1]; after FAP cleavage, 95% CI, read-out: CI of EC50 following cleavage",0.013 to 0.02 nM
same,EC50,"[1]; uncleaved FAP sensor, 95% CI, read-out: CI of EC50 before cleavage",0.112 to 0.116 nM
same,EC50,"[1]; uncleaved FAP sensor, read-out: EC50 before cleavage",0.114 nM
"cfSGFP2-ENLYFQG-CGRP-G (cfSGFP2-GGSGENLYFQGACDTATCVTHRLAGLLSRSGGVVKNNFVPTNVGSKAFG; ends and bridges not checked; also: StrepII tag, position not given here) [Sensor (2), recombinant fusion of cysteine-free GFP, a short linker, TEV protease site and non-amidated CGRP]","Log(EC50), Cleaved",[1],−6.0
same,"Log(EC50), Uncleaved",[1],<−5
"cfSGFP2-DEVD-CGRP-G (cfSGFP2-GGSGDEVDACDTATCVTHRLAGLLSRSGGVVKNNFVPTNVGSKAFG; ends and bridges not checked; also: StrepII tag, position not given here) [Sensor (4), recombinant fusion of cysteine-free GFP, a short linker, caspase-3 site and non-amidated CGRP]","Log(EC50), Cleaved",[1],−6.4
same,"Log(EC50), Uncleaved",[1],<−5
"cfSGFP2-DEVD-CGRP-G [Sensor (4), recombinant fusion of cysteine-free GFP, a short linker, caspase-3 site and non-amidated CGRP]",cleavage by caspase-3,caspase-3 (CASP3),near-complete
(long-chain biotin)-SG-DEVD-CGRP-amide (disulfide) [Sensor (5)],"protease sensitivity and post-cleavage potency, ranking",[1]; comparison of sensors,optimum protease sensitivity and post-cleavage potency
same,cleavage by caspase-3,caspase-3 (CASP3),complete cleavage
same,peak MRI signal change in the absence of CASP3,"[2]; 100 nM sensor alone, 0.1 μl/min, 10 min, n=4",1.6±0.5%
same,"mean MRI peak signal change, sensor/CASP3 co-injection","[2]; 100 nM sensor with CASP3, 0.1 μl/min, 10 min, n=4, P=0.02",7.0±0.9%
same,significant haemodynamic activation / voxel correlation with vs without CASP3,"[2]; corrected t-test P<0.05, listed as CASP3 sensor",observed in the presence but not the absence of the co-injected protease
same,significant haemodynamic activation / voxel correlation with vs without CASP3,"[2]; corrected t-test P<0.05, listed as CGRP-based molecular imaging probe (5)",Significant haemodynamic activation can be seen in the presence but not the absence of coadministered 1.15 ng μl^−1 CASP3
CC(C)C[C@H](NC(=O)CNC(=O)[C@H](C)NC(=O)[C@H](CC(C)C)NC(=O)[C@H](CCCNC(=N)N)NC(=O)[C@H](Cc1c[nH]cn1)NC(=O)[C@@H](NC(=O)[C@@H](NC(=O)[C@@H]1CSSC[C@H](NC(=O)[C@H](C)N)C(=O)N[C@@H](CC(=O)O)C(=O)N[C@@H]([C@@H](C)O)C(=O)N[C@@H](C)C(=O)N[C@@H]([C@@H](C)O)C(=O)N1)C(C)C)[C@@H](C)O)C(=O)N[C@@H](CC(C)C)C(=O)N[C@@H](CO)C(=O)N[C@@H](CCCNC(=N)N)C(=O)N[C@@H](CO)C(=O)NCC(=O)NCC(=O)N[C@H](C(=O)N[C@H](C(=O)N[C@@H](CCCCN)C(=O)N[C@@H](CC(N)=O)C(=O)N[C@@H](CC(N)=O)C(=O)N[C@@H](Cc1ccccc1)C(=O)N[C@H](C(=O)N1CCC[C@H]1C(=O)N[C@H](C(=O)N[C@@H](CC(N)=O)C(=O)N[C@H](C(=O)NCC(=O)N[C@@H](CO)C(=O)N[C@@H](CCCCN)C(=O)N[C@@H](C)C(=O)N[C@@H](Cc1ccccc1)C(=O)NCC(=O)O)C(C)C)[C@@H](C)O)C(C)C)C(C)C)C(C)C [CGRP-G],EC50,"[1]; C-terminal glycine extension, read-out: 95% CI of EC50 for receptor activation",2.1 to 3.1 nM
same,EC50,"[1]; C-terminal glycine extension, read-out: EC50 for receptor activation",2.5 nM
"COC(=O)[C@@H](N)CCCNC(N)=N[N+](=O)[O-] [L-NAME, N-nitro-L-arginine methyl ester]",average increase in baseline brain MRI signal before CGRP infusion,"[3]; 50 mg/kg i.v., t-test P=0.11, n=4, not significant",3.5±2.3%
same,increase in baseline MRI signal after L-NAME (review reply),"[3]; during first five minutes after L-NAME injection, n=4",< 5%
(long-chain biotin)-SG-DEVD-CGRP-amide (disulfide) ({long‑chain biotin}-SGDEVDACDTATCVTHRLAGLLSRSGGVVKNNFVPTNVGSKAF-NH2; disulfide 8-13) [Sensor (5)],EC50,"[1]; after CASP3 cleavage, 95% CI, read-out: CI of EC50 following cleavage",0.038 to 0.046 nM
same,EC50,"[1]; uncleaved CASP3 sensor, 95% CI, read-out: CI of EC50 before cleavage",5.2 to 6.4 nM
same,EC50,"[1]; uncleaved CASP3 sensor, read-out: EC50 before cleavage",5.7 nM
"cfSGFP2-DDDDK-CGRP-G (cfSGFP2-GGSGDDDDKACDTATCVTHRLAGLLSRSGGVVKNNFVPTNVGSKAFG; ends and bridges not checked; also: StrepII tag, position not given here) [Sensor (3), recombinant fusion of cysteine-free GFP, a short linker, enterokinase site and non-amidated CGRP]","Log(EC50), Cleaved",[1],−6.4
same,"Log(EC50), Uncleaved",[1],<−5
